Reference: patent US20240217967A1, “INDOLINE DERIVATIVES AS DDRS INHIBITORS” (CHIESI FARMACEUTICI S.P.A., priority 2021, published 2024)

Key:
DDR1 [1] = biological target: T1, DDR1 (Homo sapiens, UniProt Q08345); experiment: DDR1 LanthaScreen Europium Kinase Binding assay; conditions: binding affinity; IC50 converted in Ki using Cheng-Prusoff; read-out: Ki DDR1
Outline: (§1)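 Binding by TR-FRET tracer displacement: compounds incubated 1 h at room temperature with 5 nM DDR1 plus 20 nM Kinase Tracer 178, or 5 nM DDR2 plus 10 nM tracer, and 2 nM Eu anti-GST antibody in pH 7.5 HEPES/MgCl2/EGTA/BRIJ35 buffer. 665/615 nm ratio gave four-parameter IC50, converted to Ki via Cheng-Prusoff.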

DDR2 [2] = biological target: T2, DDR2 (Homo sapiens, UniProt Q16832); experiment: DDR2 LanthaScreen Europium Kinase Binding assay; conditions: binding affinity; IC50 converted in Ki using Cheng-Prusoff; read-out: Ki DDR2
T2 sequence (Q16832 22-855): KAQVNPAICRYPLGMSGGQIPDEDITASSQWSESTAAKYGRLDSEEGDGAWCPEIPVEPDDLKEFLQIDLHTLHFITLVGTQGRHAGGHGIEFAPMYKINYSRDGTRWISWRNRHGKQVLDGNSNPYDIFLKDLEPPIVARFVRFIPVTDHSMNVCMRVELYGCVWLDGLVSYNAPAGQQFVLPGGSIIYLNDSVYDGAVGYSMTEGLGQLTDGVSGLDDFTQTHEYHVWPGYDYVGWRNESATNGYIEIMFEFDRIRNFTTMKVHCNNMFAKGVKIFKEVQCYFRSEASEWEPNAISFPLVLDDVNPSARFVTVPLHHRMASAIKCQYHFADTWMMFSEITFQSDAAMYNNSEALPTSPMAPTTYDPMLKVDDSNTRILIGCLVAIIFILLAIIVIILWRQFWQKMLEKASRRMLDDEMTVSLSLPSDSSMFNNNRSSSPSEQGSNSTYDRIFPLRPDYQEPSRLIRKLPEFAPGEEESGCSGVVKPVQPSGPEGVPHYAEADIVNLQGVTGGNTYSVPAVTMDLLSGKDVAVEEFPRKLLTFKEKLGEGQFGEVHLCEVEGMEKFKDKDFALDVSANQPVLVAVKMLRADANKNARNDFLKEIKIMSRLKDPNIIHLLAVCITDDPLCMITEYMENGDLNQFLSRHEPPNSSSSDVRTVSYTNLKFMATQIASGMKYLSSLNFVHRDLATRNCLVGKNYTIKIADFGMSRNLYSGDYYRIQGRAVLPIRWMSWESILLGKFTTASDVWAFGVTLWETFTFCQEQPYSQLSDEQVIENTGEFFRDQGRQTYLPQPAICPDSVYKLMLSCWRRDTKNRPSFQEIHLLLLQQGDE
Outline: as §1

DDR1 [3] = biological target: T1, DDR1; experiment: DDR1 cell based assay (PathHunter U2OS DDR1, collagen II stimulation); conditions: U2OS-DDR1 cells, bovine Type II Collagen stimulation
Outline: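 Receptor activation measured by enzyme-fragment complementation luminescence in engineered U2OS cells. Compound added 30 min before overnight challenge with 20 μg/ml bovine collagen II; data scaled between vehicle and collagen-stimulated controls, IC50 derived by four-parameter variable-slope fitting.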

DDR2 [4] = biological target: T2, DDR2; experiment: DDR2 cell based assay (phospho-ELISA in HEK293T-DDR2 recombinant cells, collagen II stimulation); conditions: bovine Type II Collagen stimulation
Description: The inhibition of DDR2 phosphorylation by compounds was evaluated in HEK293T-DDR2 recombinant cells by phospho-ELISA assay. Briefly, HEK293T-DDR2 cells were seeded in poly-D-lysine-coated 24-well plates at a density of 250.000 cells/well and incubated for 1.5 hours at 37° C. and 5% CO2 in DMEM+10% FBS. After that, the medium was changed to serum-free DMEM and cells were incubated for 3 hours. Then. test compounds were added at different concentrations 30 minutes before stimulation with bovine Type II Collagen at 50 μg/ml for further 3 hours. For DDR2 phospho-ELISA assay (DuoSet IC Human Phospho-DDR2; R&D Systems), protein extracts were obtained by adding 60 μl/well of lysis buffer prepared according to the manufacturer's instructions. Protein concentration in the samples was determined by BCA assay and the levels of phospho-DDR2 were determined following R&D Systems indications. Raw data were normalized to maximal inhibition control (0% for normalization) and positive control (100% for normalization; cells treated with […] collagen II) and IC50 parameters were calculated in GraphPad Prism 8.0 software, using sigmoidal dose-response curve fitting with variable slope.

T1 sequence (Q08345 19-913): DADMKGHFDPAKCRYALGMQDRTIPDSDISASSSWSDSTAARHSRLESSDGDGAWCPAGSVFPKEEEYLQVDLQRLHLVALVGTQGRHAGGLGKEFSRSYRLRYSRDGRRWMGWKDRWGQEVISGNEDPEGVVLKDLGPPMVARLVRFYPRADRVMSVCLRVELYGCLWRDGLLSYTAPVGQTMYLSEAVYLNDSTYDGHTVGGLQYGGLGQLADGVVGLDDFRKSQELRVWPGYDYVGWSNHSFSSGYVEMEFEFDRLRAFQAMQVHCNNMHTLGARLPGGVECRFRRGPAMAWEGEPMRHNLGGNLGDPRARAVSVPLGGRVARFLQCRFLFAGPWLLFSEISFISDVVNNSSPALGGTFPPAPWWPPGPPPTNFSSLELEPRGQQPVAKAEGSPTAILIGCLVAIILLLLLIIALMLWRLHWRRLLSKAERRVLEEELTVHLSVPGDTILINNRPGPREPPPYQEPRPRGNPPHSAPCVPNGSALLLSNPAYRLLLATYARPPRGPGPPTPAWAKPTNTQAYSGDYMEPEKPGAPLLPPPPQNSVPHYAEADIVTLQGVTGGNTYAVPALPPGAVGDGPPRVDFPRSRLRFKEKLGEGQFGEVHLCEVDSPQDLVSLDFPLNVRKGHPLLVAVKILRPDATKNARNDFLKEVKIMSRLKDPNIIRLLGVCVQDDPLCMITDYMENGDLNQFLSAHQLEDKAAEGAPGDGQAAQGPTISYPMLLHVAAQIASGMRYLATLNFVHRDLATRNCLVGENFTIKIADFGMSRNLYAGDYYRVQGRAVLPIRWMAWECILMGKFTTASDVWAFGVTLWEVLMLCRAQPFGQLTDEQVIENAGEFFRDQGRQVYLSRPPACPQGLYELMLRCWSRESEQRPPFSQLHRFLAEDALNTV

Row | Compound | Ki (DDR1 [1]) | Ki (DDR2 [2]) | IC50 (DDR1 [3]) | IC50 (DDR2 [4])
1 | CN1CCN(Cc2ccc(NC(=O)c3ccc4c(c3)N(Cc3cnc5[nH]nc(N6CCOCC6)c5c3)CC4)cc2C(F)(F)F)CC1 [Example 89, N-[4-[(4-methylpiperazin-1-yl)methyl]-3-(trifluoromethyl)phenyl]-1-[(3-morpholino-1H-pyrazolo[3,4-b]pyridin-5-yl)methyl]indoline-6-carboxamide] | < 25 nM | < 25 nM | < 25 nM | 50 to 80 nM
2 | O=C(Nc1cc(F)cc(C(F)(F)F)c1)c1ccc2c(c1)N(Cc1cnc3[nH]ncc3c1)CC2 [Example 39, 1-((1H-pyrazolo[3,4-b]pyridin-5-yl)methyl)-N-(3-fluoro-5-(trifluoromethyl)phenyl)indoline-6-carboxamide] | 25 to 50 nM | < 25 nM | < 25 nM | 25 to 50 nM
3 | Cc1cn(-c2cc(NC(=O)c3ccc4c(c3)N(Cc3cnc5[nH]ncc5c3)CC4)cc(C(F)(F)F)c2)cn1 [Example 6, 1-((1H-pyrazolo[3,4-b]pyridin-5-yl)methyl)-N-(3-(4-methyl-1H-imidazol-1-yl)-5-(trifluoromethyl)phenyl)indoline-6-carboxamide] | < 25 nM | < 25 nM | < 25 nM | 50 to 80 nM
4 | O=C(Nc1cccc(C(F)(F)F)c1)c1ccc2c(c1)N(Cc1cnc3[nH]ncc3c1)CC2 [Example 35, 1-((1H-pyrazolo[3,4-b]pyridin-5-yl)methyl)-N-(3-(trifluoromethyl)phenyl)indoline-6-carboxamide] | < 25 nM | < 25 nM | < 25 nM | < 25 nM
5 | Cc1cn(-c2cc(C(=O)Nc3ccc4c(c3)N(C(=O)c3cnc5[nH]ncc5c3)CC4)cc(C(F)(F)F)c2)cn1 [Example 21, N-(1-(1H-pyrazolo[3,4-b]pyridine-5-carbonyl)indolin-6-yl)-3-(4-methyl-1H-imidazol-1-yl)-5-(trifluoromethyl)benzamide] | < 25 nM | < 25 nM | 25 to 50 nM | < 25 nM
6 | Cc1n[nH]c2ncc(CN3CCc4ccc(C(=O)Nc5ccc(CN6CCN(C)CC6)c(C(F)(F)F)c5)cc43)cc12 [Example 65, 1-((3-methyl-1H-pyrazolo[3,4-b]pyridin-5-yl)methyl)-N-(4-((4-methylpiperazin-1-yl)methyl)-3-(trifluoromethyl)phenyl)indoline-6-carboxamide] | < 25 nM | < 25 nM | < 25 nM | 50 to 80 nM
7 | Cc1cn(-c2cc(NC(=O)c3ccc4c(c3)N(Cc3cnc5[nH]nc(C)c5c3)CC4)cc(C(F)(F)F)c2)cn1 [Example 7, N-(3-(4-methyl-1H-imidazol-1-yl)-5-(trifluoromethyl)phenyl)-1-((3-methyl-1H-pyrazolo[3,4-b]pyridin-5-yl)methyl)indoline-6-carboxamide] | < 25 nM | < 25 nM | < 25 nM | 25 to 50 nM
8 | Cc1cn(-c2cc(C(=O)Nc3ccc4c(c3)N(Cc3cnc5[nH]ncc5c3)CC4)cc(C(F)(F)F)c2)cn1 [Example 38, N-(1-((1H-pyrazolo[3,4-b]pyridin-5-yl)methyl)indolin-6-yl)-3-(4-methyl-1H-imidazol-1-yl)-5-(trifluoromethyl)benzamide] | < 25 nM | < 25 nM | < 25 nM | 50 to 80 nM
9 | CN1CCN(Cc2ccc(NC(=O)c3ccc4c(c3)N(Cc3cnc5[nH]ncc5c3)CC4)cc2C(F)(F)F)CC1 [Example 75] | < 25 nM | < 25 nM | < 25 nM | < 25 nM
10 | CN(C)Cc1c[nH]c2ncc(CN3CCc4ccc(C(=O)Nc5cccc(C(F)(F)F)c5)cc43)cc12 [Example 90, 1-((3-((dimethylamino)methyl)-1H-pyrrolo[2,3-b]pyridin-5-yl)methyl)-N-(3-(trifluoromethyl)phenyl)indoline-6-carboxamide] | < 25 nM | < 25 nM | < 25 nM | –
11 | O=C(Nc1cc(F)cc(C(F)(F)F)c1)c1ccc2c(c1)N(Cc1ccc3[nH]cnc3c1)CC2 [Example 62, 1-((1H-benzo[d]imidazol-5-yl)methyl)-N-(3-fluoro-5-(trifluoromethyl)phenyl)indoline-6-carboxamide] | 25 to 50 nM | 50 to 80 nM | 50 to 80 nM | –
12 | Cc1n[nH]c2ncc(CN3CCc4ccc(C(=O)Nc5cc(C(C)(C)C)on5)cc43)cc12 [Example 67, N-(5-(tert-butyl)isoxazol-3-yl)-1-((3-methyl-1H-pyrazolo[3,4-b]pyridin-5-yl)methyl)indoline-6-carboxamide] | < 25 nM | < 25 nM | < 25 nM | –
13 | O=C(Nc1cccc(OC(F)(F)F)c1)c1ccc2c(c1)N(Cc1cnc3cnccn13)CC2 [Example 43, 1-(imidazo[1,2-a]pyrazin-3-ylmethyl)-N-(3-(trifluoromethoxy)phenyl)indoline-6-carboxamide] | < 25 nM | < 25 nM | 25 to 50 nM | –
14 | CN1CCN(Cc2cc(NC(=O)c3ccc4c(c3)N(C(=O)c3cnc5cnccn35)CC4)cc(C(F)(F)F)c2)CC1 [Example 15, 1-(imidazo[1,2-a]pyrazine-3-carbonyl)-N-(3-((4-methylpiperazin-1-yl)methyl)-5-(trifluoromethyl)phenyl)indoline-6-carboxamide] | < 25 nM | < 25 nM | 50 to 80 nM | –
15 | O=C(Nc1cc(CN2CCOCC2)cc(C(F)(F)F)c1)c1ccc2c(c1)N(Cc1cnc3cnccn13)CC2 [Example 49, 1-(imidazo[1,2-a]pyrazin-3-ylmethyl)-N-(3-(morpholinomethyl)-5-(trifluoromethyl)phenyl)indoline-6-carboxamide] | < 25 nM | < 25 nM | 50 to 80 nM | –
16 | Cc1cn(-c2cc(NC(=O)c3ccc4c(c3)N(Cc3cnc5ccccn35)CC4C)cc(C(F)(F)F)c2)cn1 (stereo not drawn) [Example 25, 1-(imidazo[1,2-a]pyridin-3-ylmethyl)-3-methyl-N-(3-(4-methyl-1H-imidazol-1-yl)-5-(trifluoromethyl)phenyl)indoline-6-carboxamide] | < 25 nM | 25 to 50 nM | 25 to 50 nM | –
17 | CN1CCC(Oc2ccc(NC(=O)c3ccc4c(c3)N(Cc3cnc5cnccn35)CC4)cc2C(F)(F)F)CC1 [Example 54, 1-(imidazo[1,2-a]pyrazin-3-ylmethyl)-N-(4-((1-methylpiperidin-4-yl)oxy)-3-(trifluoromethyl)phenyl)indoline-6-carboxamide] | < 25 nM | < 25 nM | 50 to 80 nM | –
18 | CN1CCN(Cc2ccc(NC(=O)c3ccc4c(c3)N(Cc3cnn5ccncc35)CC4)cc2C(F)(F)F)CC1 [Example 86, N-(4-((4-methylpiperazin-1-yl)methyl)-3-(trifluoromethyl)phenyl)-1-(pyrazolo[1,5-a]pyrazin-3-ylmethyl)indoline-6-carboxamide] | < 25 nM | < 25 nM | 25 to 50 nM | –
19 | CN1CCN(Cc2cc(C(=O)Nc3ccc4c(c3)N(Cc3cnc5cnccn35)CC4)cc(C(F)(F)F)c2)CC1 [Example 18, N-(1-(imidazo[1,2-a]pyrazin-3-ylmethyl)indolin-6-yl)-3-((4-methylpiperazin-1-yl)methyl)-5-(trifluoromethyl)benzamide] | < 25 nM | < 25 nM | 25 to 50 nM | –
